A short description of the series: Intraduodenal (id) bioavailability screen in minipigs, oil formulations, vs iv parent dichloro complex. Format: in vivo, Gottingen minipig. As to conditions: for Mini-Pig BioA: id 10 mg/kg, 10% by weight formulation, AUC0->24 h vs iv 1 mg/kg parent chloro complex. The method, then:
Compounds were screened for oral bioavailability by injecting the formulated prodrugs directly into the duodenum (intraduodenal or id administration) of the minipig test subjects, thus bypassing the acidic environment of the stomach and thereby eliminating potentially misleading oral bioavailability results that could arise from alteration of the test article drug in the acid environment of the stomach.
The studies were conducted at Xenometrics LLC (Stillwell, Kans.) and the Id bioavailability was determined using various axial ligand derivative complexes of GC4419, GC4444, GC4403 and GC4401.
*Where the iv dose is 1 mg of test article drug per kilogram body weight of the mini-pig, and the dose administered id is 10 mg of test article drug per kg body weight of the mini-pig.
Male Gottingen minipigs (4-5 mo old, 9-12 kg weight) were purchased from Marshall BioResources and housed at Xenometrics. […] The distal end was exteriorized with a reusable accessible hub (see surgical details below). During a recovery period of at least 2 weeks the minipigs were handled daily to acclimate them to the test procedures, i.e., id dosing and blood collections. For each experiment, each minipig received a test article drug dissolved or suspended in an excipient vehicle. […] All dosing experiments were conducted in fasted animals. Food was withdrawn from the minipigs 16 hours before dosing. The minipigs had ad libitum access to water. Dosed minipigs were allowed access to food 6 hour after dosing. The test article was administered at a dose of 10 mg/kg parent drug in 0.1 m L/kg vehicle (e.g., 1.5 mL in 15 kg minipig) as a bolus injection (˜1 minute) via the id cannula. The actual amount of total test article drug administered varied with the formula weight of the prodrug. An equal volume of excipient vehicle was used to flush the cannula after the test article was administered. Approximately 6 hours later, corn oil was used to flush the cannula. After approximately 24 hours post-dose, the catheter was flushed with sterile saline solution and capped. At the following time-points 0.25, 0.5, 1, 2, 4, 8, 24 and 48 hour post-injection, 2 mL blood samples were collected by cranial vena cava puncture (4 mL Sodium heparin Vacutainer, 20 g 1.5″ needle) after the skin surface was wiped with ethanol. The minipig was placed in a sling in a recumbent position without anesthesia for the collection of blood samples. The minipigs were never used more than once per 7 days for experimentation. The blood samples were kept on ice until processed for plasma. Blood samples were centrifuged at 1200×g for ten minutes at 4° C. and plasma samples were transferred to 96 well plate tubes, capped and stored at −20° C. until shipment on dry ice to the analytical laboratory used for measuring the concentration of drug in the plasma. The concentration of the parent manganese pentaaza macrocylic ring complex (independent of the composition of the axial ligands) was measured in plasma using a validated HPLC/MS/MS method that is linear between 50 ng/mL and 20,000 ng/mL.
The oils used for preparing the dosing solutions were used as supplied from commercial sources. The Capmul MCM (NF) is a mixture of mono/diglycerides of caprylic/capric acids and was supplied by ABITEC Corporation, Janesville, Wis. The Miglyol 812 N is a mixture of caprylic/capric acid triglycerides and was supplied by Cremer Oleo Division, Eatontown, N.J. Labrafil M 2125 CS (NF) is chemically defined to be linoleoyl polyoxyl-6 glycerides NF and was supplied by Gattefosse, SAINT-PRIEST Cedex, France. Peceol is chemically defined to be the monoglyceride, glyceryl monooleate NF, and was supplied by Gattefosse, SAINT-PRIEST Cedex, France. Maisine 35-1 is chemically defined to be the monoglyceride glyceryl monolinoleate (NF) and was supplied by Gattefosse, SAINT-PRIEST Cedex, France. Labrasol (NF) is chemically defined to be caprylocaproyl polyoxyl-8 glycerides NF and was supplied by Gattefosse, SAINT-PRIEST Cedex, France. […]

Turning to `C[C@@H]1CN[C@@H]2CCCC[C@H]2NCc2cccc(n2)CN[C@@H]2CCCC[C@H]2N1.[Cl][Mn][Cl]` [GC4444, reference compound], the “Mini-Pig BioA” value (base oil Capmul MCM) worked out at 14%.

On to “Manganese(II)bis-Benzoato[(4aS,13aS,17aS,21aS)-1,2,3,4,4a,5,6,12,13,13a,14,15,16,17,17a,18,19,20,21,21a-Eicosahydro-11,7-nitrilo-7H-dibenzo[b,h][1,4,7,10] tetraazacycloheptadecine-KN5, KN13, KN18, KN21, KN22]- [GC4712]”, for which the “Mini-Pig BioA” value by setting is: (base oil Capmul MCM) 24%; (base oil Maisine 35-1) 18%; (base oil Peceol) 29%.

For “Manganese(II)bis-L--valinato[(4aS,13aS,17aS,21aS)-1,2,3,4,4a,5,6,12,13,13a,14,15,16,17,17a,18,19,20,21,21a- Eicosahydro-11,7-nitrilo-7H-dibenzo[b,h][1,4,7,10] tetraazacyclo-heptadecine-KN5, KN13, KN18, KN21, KN22]- [GC4746]”, the “Mini-Pig BioA” value (base oil Capmul MCM) is recorded as 13%.

With “Manganese(II)bis-L-Lactato[(4aS,13aS,17aS,21aS)-1,2,3,4,4a,5,6,12,13,13a,14,15,16,17,17a,18,19,20,21,21a-Eicosahydro-11,7-nitrilo-7H-dibenzo[b,h][1,4,7,10] tetraazacycloheptadecine-KN5, KN13, KN18, KN21, KN22]- [GC4714]”, under “base oil Capmul MCM”, the “Mini-Pig BioA” value amounted to 36%.

For the compound “Manganese(II)bis-L-phenylalaninato[(4aS,13aS,17aS,21aS)-1,2,3,4,4a,5,6,12,13,13a,14,15,16,17,17a,18,19,20,21,21a-Eicosahydro-11,7-nitrilo-7H-dibenzo[b,h][1,4,7,10] tetraazacyclo-heptadecine-KN5, KN13, KN18, KN21, KN22]- [GC4704]”, the “Mini-Pig BioA” value (base oil Capmul MCM) is 10%.

On to “Manganese(II)bis-L-phenylglycinato[(4aS,13aS,17aS,21aS)-1,2,3,4,4a,5,6,12,13,13a, 14,15,16,17,17a,18,19,20,21,21a-Eicosahydro-11,7-nitrilo-7H-dibenzo[b,h][1,4,7,10] tetraazacyclo-heptadecine-KN5, KN13, KN18, KN21, KN22]- [GC4702]”, for which the “Mini-Pig BioA” value is recorded as 43% (base oil Capmul MCM), 25% (base oil Labrafil M2125 CS), 42% (base oil Miglyol 812N) and 29% (base oil Peceol). For the setting “minipig id dosing, comparison between axial ligands”, the “bioavailability / absorption, in words” value is “much better absorbed”.

For “Manganese(II)bis-acetato[(4aS,13aS,17aS,21aS)-1,2,3,4,4a,5,6,12,13,13a,14,15,16,17, 17a,18,19,20,21,21a-Eicosahydro-11,7-nitrilo-7H-dibenzo[b,h][1,4,7,10] tetraazacycloheptadecine-KN5,KN13,KN18,KN21,KN22]- [GC4701]”, the “Mini-Pig BioA” value runs as follows: (base oil Capmul MCM) 15%; (base oil Labrafil M2125 CS) 16%; (base oil Maisine 35-1) 8%; (base oil Peceol) 11%.

In the case of “Manganese(II)bis-cyclohexanebutyrato[(4aS,13aS,17aS,21aS)-1,2,3,4,4a,5,6,12,13,13a, 14,15,16,17,17a,18,19,20,21,21a-Eicosahydro-11,7-nitrilo-7H-dibenzo[b,h][1,4,7,10] tetraazacyclo-heptadecine-KN5, KN13, KN18, KN21, KN22]- [GC4707]”, the “Mini-Pig BioA” value (base oil Capmul MCM) is recorded as 9%.

Turning to “Manganese(II)bis-dodecanoato[(4aS,13aS,17aS,21aS)-1,2,3,4,4a,5,6,12,13, 13a,14,15,16,17,17a,18,19,20,21,21a-Eicosahydro-11,7-nitrilo-7H-dibenzo[b,h][1,4,7,10] tetraazacycloheptadecine-KN5, KN13, KN18, KN21, KN22]- [GC4708]”, under “base oil Capmul MCM”, the “Mini-Pig BioA” value was found to be 12%.

For the compound “Manganese(II)bis-n-Butyrato[(4aS,13aS,17aS,21aS)-1,2,3,4,4a,5,6,12,13,13a,14,15,16,17,17a,18,19,20,21,21a-Eicosahydro-11,7-nitrilo-7H-dibenzo[b,h][1,4,7,10] tetraazacycloheptadecine-KN5, KN13, KN18, KN21, KN22]- [GC4713]”, the “Mini-Pig BioA” value (base oil Labrafil M2125 CS) is 21% and the “Mini-Pig BioA” value (base oil Peceol) is reported as 18%.

In the case of “Manganese(II)bis-octanoato[(4aS,13aS,17aS,21aS)-1,2,3,4,4a,5,6,12,13,13a,14,15,16, 17,17a,18,19,20,21,21a-Eicosahydro-11,7-nitrilo-7H-dibenzo[b,h][1,4,7,10] tetraazacycloheptadecine-KN5, KN13, KN18, KN21, KN22]- [GC4710]”, the “Mini-Pig BioA” value by setting is: (base oil Capmul MCM) 13%; (base oil Labrafil M2125 CS) 21%; (base oil Maisine 35-1) 8%.

Turning to “Manganese(II)bis-phenylacetato[(4aS,13aS,17aS,21aS)-1,2,3,4,4a,5,6,12,13,13a,14, 15,16,17,17a,18,19,20,21,21a-Eicosahydro-11,7-nitrilo-7H-dibenzo[b,h][1,4,7,10] tetraazacyclo-heptadecine-KN5, KN13, KN18, KN21, KN22]- [GC4718]”, the “Mini-Pig BioA” value was 32% (base oil Capmul MCM) and 28% (base oil Maisine 35-1).

For the compound “Manganese(II)bis-phenylglyoxaloto[(4aS,13aS,17aS,21aS)-1,2,3,4,4a,5,6,12,13,13a,14, 15,16,17,17a,18,19,20,21,21a-Eicosahydro-11,7-nitrilo-7H-dibenzo[b,h][1,4,7,10] tetraazacyclohepta-decine-KN5, KN13, KN18, KN21, KN22]- [GC4719]”, the “Mini-Pig BioA” value runs as follows: (base oil Capmul MCM) 25%; (base oil Maisine 35-1) 31%; (base oil Peceol) 28%.

As to “Manganese(II)bis-pivaloato[(4aS,13aS,17aS,21aS)-1,2,3,4,4a,5,6,12,13,13a,14,15,16,17, 17a,18,19,20,21,21a-Eicosahydro-11,7-nitrilo-7H-dibenzo[b,h][1,4,7,10] tetraazacycloheptadecine-KN5, KN13, KN18, KN21, KN22]- [GC4709]”, the “Mini-Pig BioA” value (base oil Capmul MCM) came out at 17% and the “Mini-Pig BioA” value (base oil Labrafil M2125 CS) came out at 22%.

Turning to “Manganese(II)bis-propionato[6R-Methyl(4aR,13aR,17aR,21aR)-1,2,3,4,4a,5,6,12,13,13a,14,15,16,17,17a,18,19,20,21,21a-Eicosahydro-11,7-nitrilo-7H-dibenzo[b,h][1,4,7,10] tetraazacycloheptadecine-KN5, KN13, KN18, KN21, KN22]- [GC4747]”, the “Mini-Pig BioA” value (base oil Labrafil M2125 CS) was found to be 20%.

Turning to “Manganese(II)bis-propionato[(4aR,13aR,17aR,21aR)-1,2,3,4,4a,5,6,12,13,13a,14,15,16,17,17a,18,19,20,21,21a-Eicosahydro-11,7-nitrilo-7H-dibenzo[b,h][1,4,7,10] tetraazacycloheptadecine-KN5, KN13, KN18, KN21, KN22]- [GC4748]”, where the note is “base oil Labrafil M2125 CS”, the “Mini-Pig BioA” value is given as 22%.

As to “Manganese(II)bis-propionato[(4aS,13aS,17aS,21aS)-1,2,3,4,4a,5,6,12,13,13a,14,15,16, 17,17a,18,19,20,21,21a-Eicosahydro-11,7-nitrilo-7H-dibenzo[b,h][1,4,7,10] tetraaza-cycloheptadecine-KN5, KN13, KN18, KN21, KN22]- [GC4711]”, the “Mini-Pig BioA” value is, setting by setting: (base oil Capmul MCM) 27%; (base oil Labrafil M1944 CS) 23%; (base oil Labrafil M2125 CS) 44%; (base oil Maisine 35-1) 29%; (base oil Peceol) 29%.
